Data as given in the supplement of paper PMC10307832.

What was measured:
Assay in all cases: relative viability (nuclei count vs DMSO), 5 days (fraction); higher = more cells survive
Tipifarnib + Vorinostat = compound: Cn1cncc1[C@@](N)(c1ccc(Cl)cc1)c1ccc2c(c1)c(-c1cccc(Cl)c1)cc(=O)n2C [Tipifarnib] + O=C(CCCCCCC(=O)Nc1ccccc1)NO [Vorinostat] (partner 1 µM)
In short: (§1)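 Lung cancer cell lines in 1536-well plates got either a single drug or a fixed anchor-drug dose together with five library-drug doses (not always all listed) in √10 steps, by pin tool, on the day after seeding. Nuclei were counted after 5 days, and relative viability is the treated-to-vehicle ratio of nuclei counts. Values are medians of duplicate plates.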

Tipifarnib + Palbociclib = compound: Cn1cncc1[C@@](N)(c1ccc(Cl)cc1)c1ccc2c(c1)c(-c1cccc(Cl)c1)cc(=O)n2C [Tipifarnib] + CC(=O)c1c(C)c2cnc(Nc3ccc(N4CCNCC4)cn3)nc2n(C2CCCC2)c1=O [Palbociclib] (partner 0.5 µM)
In short: as §1

Tipifarnib + Dasatinib = compound: Cn1cncc1[C@@](N)(c1ccc(Cl)cc1)c1ccc2c(c1)c(-c1cccc(Cl)c1)cc(=O)n2C [Tipifarnib] + Cc1nc(Nc2ncc(C(=O)Nc3c(C)cccc3Cl)s2)cc(N2CCN(CCO)CC2)n1 [Dasatinib] (partner 0.075 µM)
In short: as §1

Tipifarnib + Pemetrexed = compound: Cn1cncc1[C@@](N)(c1ccc(Cl)cc1)c1ccc2c(c1)c(-c1cccc(Cl)c1)cc(=O)n2C [Tipifarnib] + Nc1nc2[nH]cc(CCc3ccc(C(=O)N[C@@H](CCC(=O)O)C(=O)O)cc3)c2c(=O)[nH]1 [Pemetrexed] (partner 0.2 µM)
In short: as §1

Cell Line	relative viability (Tipifarnib + Vorinostat; first compound 0.01 µM)	relative viability (Tipifarnib + Vorinostat; first compound 0.03162 µM)	relative viability (Tipifarnib + Vorinostat; first compound 0.1 µM)	relative viability (Tipifarnib + Vorinostat; first compound 0.3162 µM)	relative viability (Tipifarnib + Vorinostat; first compound 1 µM)	relative viability (Tipifarnib + Palbociclib; first compound 0.01 µM)	relative viability (Tipifarnib + Palbociclib; first compound 0.03162 µM)	relative viability (Tipifarnib + Palbociclib; first compound 0.1 µM)	relative viability (Tipifarnib + Palbociclib; first compound 0.3162 µM)	relative viability (Tipifarnib + Palbociclib; first compound 1 µM)	relative viability (Tipifarnib + Dasatinib; first compound 0.01 µM)	relative viability (Tipifarnib + Dasatinib; first compound 0.03162 µM)	relative viability (Tipifarnib + Dasatinib; first compound 0.1 µM)	relative viability (Tipifarnib + Dasatinib; first compound 0.3162 µM)	relative viability (Tipifarnib + Dasatinib; first compound 1 µM)	relative viability (Tipifarnib + Pemetrexed; first compound 0.01 µM)	relative viability (Tipifarnib + Pemetrexed; first compound 0.03162 µM)	relative viability (Tipifarnib + Pemetrexed; first compound 0.1 µM)	relative viability (Tipifarnib + Pemetrexed; first compound 0.3162 µM)	relative viability (Tipifarnib + Pemetrexed; first compound 1 µM)
201T	1.04	0.965	0.908	0.839	0.583	0.352	0.373	0.357	0.341	0.354	0.572	0.619	0.582	0.58	0.498	0.363	0.338	0.371	0.317	0.346
A-427	0.839	0.849	0.621	0.8	0.655	0.527	0.535	0.477	0.448	0.466	0.753	0.719	0.598	0.494	0.326	0.998	1.06	0.82	0.979	0.739
ABC-1	1.16	0.481	0.781	0.593	0.613	0.733	0.689	0.694	0.639	0.604	0.608		0.567	0.483	0.473					
BEN	0.597	0.488	0.538	0.464	0.422	0.587	0.475	0.488	0.455	0.451	0.313	0.294	0.321	0.255	0.254	0.802	0.81	0.776	0.737	0.598
CAL-12T	0.701	0.519	0.454	0.324	0.29	0.512	0.302	0.377	0.21	0.13	0.256	0.287	0.519	0.198	0.18	1.2	1.09	0.741	0.472	0.62
COR-L23	0.541	0.34	0.316	0.221	0.252	0.302	0.222	0.198	0.153	0.173	0.59	0.406	0.365	0.264	0.2	0.215	0.205	0.195	0.206	0.188
COR-L 105	0.982	0.75	0.605	0.504	0.478	0.403	0.385	0.416	0.408	0.365	0.32	0.355	0.341	0.327	0.255	1.16	1.11	0.814	0.784	0.793
ChaGo-K-1	0.772	0.706	0.752	0.691	0.297	0.996	0.937	0.932	0.885	0.758	0.622	0.56	0.589	0.525	0.324	0.262	0.274	0.265	0.27	0.272
EKVX	0.76	0.634	0.549	0.439	0.53	0.396	0.362	0.35	0.281	0.284	0.543	0.613	0.512	0.508	0.641	0.433	0.396	0.39	0.411	0.289
EMC-BAC-2	0.355	0.386	0.233	0.338	0.191	0.501	0.469	0.494	0.463	0.465	0.324	0.336	0.319	0.305	0.258	0.412	0.434	0.45	0.462	0.469
EPLC-272H	0.4	0.457	0.371	0.233	0.139	0.358	0.265	0.328	0.298	0.263	0.417	0.285	0.296	0.304	0.158	0.248	0.364	0.358	0.35	0.252
H3255	0.863	0.702	0.671	0.576	0.488	0.331	0.276	0.27	0.287	0.258	0.3	0.375	0.421	0.463	0.344	0.674	0.543	0.562	0.541	0.499
HARA	0.513	0.406	0.364	0.325	0.326	0.32	0.32	0.238	0.217	0.265	0.255	0.366	0.296	0.299	0.168	0.23	0.32	0.293	0.297	0.249
HCC-15	0.833	0.701	0.673	0.589	0.53	0.694	0.653	0.566	0.417	0.405	0.627	0.556	0.444	0.377	0.168	0.227	0.254	0.226	0.222	0.232
HCC-44	0.963	1.04	1.01	0.903	0.881	0.952	0.921	0.945	0.92	0.926						0.619	0.615	0.625	0.589	0.604
HCC-78	0.503	0.451	0.392	0.385	0.366	0.478	0.54	0.558	0.454	0.456	0.327	0.428	0.273	0.371	0.266	0.934	0.941	0.91	0.906	0.933
HCC-366	0.249	0.145	0.102	0.067	0.0373	0.259	0.346	0.199	0.179	0.101	0.78	0.65	0.353	0.331	0.046	0.145	0.143	0.167	0.127	0.0507
HCC-827	0.926	0.674	0.69	0.485	0.294	0.455	0.495	0.472	0.349	0.439	0.372	0.363	0.446	0.403	0.431	0.273	0.32	0.286	0.25	0.275

Cell Line	relative viability (Tipifarnib + Vorinostat; first compound 0.01 µM)	relative viability (Tipifarnib + Vorinostat; first compound 0.03162 µM)	relative viability (Tipifarnib + Vorinostat; first compound 0.1 µM)	relative viability (Tipifarnib + Vorinostat; first compound 0.3162 µM)	relative viability (Tipifarnib + Vorinostat; first compound 1 µM)	relative viability (Tipifarnib + Palbociclib; first compound 0.01 µM)	relative viability (Tipifarnib + Palbociclib; first compound 0.03162 µM)	relative viability (Tipifarnib + Palbociclib; first compound 0.1 µM)	relative viability (Tipifarnib + Palbociclib; first compound 0.3162 µM)	relative viability (Tipifarnib + Palbociclib; first compound 1 µM)	relative viability (Tipifarnib + Dasatinib; first compound 0.01 µM)	relative viability (Tipifarnib + Dasatinib; first compound 0.03162 µM)	relative viability (Tipifarnib + Dasatinib; first compound 0.1 µM)	relative viability (Tipifarnib + Dasatinib; first compound 0.3162 µM)	relative viability (Tipifarnib + Dasatinib; first compound 1 µM)	relative viability (Tipifarnib + Pemetrexed; first compound 0.01 µM)	relative viability (Tipifarnib + Pemetrexed; first compound 0.03162 µM)	relative viability (Tipifarnib + Pemetrexed; first compound 0.1 µM)	relative viability (Tipifarnib + Pemetrexed; first compound 0.3162 µM)	relative viability (Tipifarnib + Pemetrexed; first compound 1 µM)
HOP-62	0.624	0.186	0.335	0.243	0.203	0.425	0.33	0.268	0.188	0.191	0.683	0.392	0.37	0.277	0.338	0.233	0.297	0.276	0.208	0.222
IA-LM		0.539	0.277	0.238	0.249															
LC-2-ad	0.634	0.505	0.42	0.336	0.305	0.464	0.439	0.442	0.336	0.38	0.54	0.545	0.496	0.277	0.336	0.273	0.271	0.283	0.265	0.275
LCLC-97TM1	0.657	0.166	0.518	0.394	0.121	0.222	0.154	0.202	0.202	0.236	0.833	0.704	0.745	0.64	0.383	0.169	0.208	0.192	0.16	0.144
LCLC-103H	0.676	0.707	0.68	0.533	0.611	0.483	0.384	0.491	0.411	0.571	0.47	0.441	0.426	0.345	0.328	0.517	0.45	0.49	0.49	0.507
LK-2	0.262	0.237	0.244	0.193	0.168	0.586	0.543	0.481	0.474	0.42	0.276	0.261	0.27	0.299	0.191	0.31	0.313	0.279	0.232	0.122
LOU-NH91	0.897	0.53	0.749	0.747	0.458	0.494	0.516	0.592	0.541	0.58	0.53	0.505	0.507	0.451	0.338	0.347	0.409	0.412	0.408	0.459
LU99A	0.389	0.385	0.327	0.271	0.277	0.359	0.349	0.264	0.216	0.237	0.68	0.524	0.432	0.205	0.306	0.201	0.202	0.2	0.217	0.196
LXF-289	0.775	0.755	0.665	0.59	0.332	0.615	0.586	0.591	0.549	0.565	0.218	0.237	0.249	0.217	0.0926	0.849	0.884	0.835	0.759	0.526
NCI-H23	0.543	0.31	0.299	0.205	0.167	0.577	0.397	0.405	0.35	0.341	0.76	0.711	0.667	0.473	0.282	0.714	0.602	0.588	0.466	0.242
NCI-H322M	0.869	0.991	0.813	0.863	0.725	0.521	0.548	0.515	0.459	0.508	0.236	0.27	0.259	0.246	0.285	0.605	0.681	0.68	0.641	0.625
NCI-H358	0.638	0.431	0.365	0.309	0.247	0.152	0.127	0.118	0.129	0.144	0.142	0.224	0.157	0.169	0.155	0.183	0.185	0.193	0.182	0.169
NCI-H596	1.11	0.462	0.467	0.456	0.434						0.612	0.653	0.527	0.423	0.384	0.488	0.492	0.482	0.528	0.514
NCI-H727	1.15	1.22	1.18	1.32	0.91	0.693	0.596	0.599	0.652	0.615	0.443	0.422	0.421	0.503	0.62					
NCI-H1563											0.44	0.53	0.453	0.489	0.387	0.731	0.799	0.777	0.655	0.665
NCI-H1648	0.356	0.394	0.419	0.384	0.372	0.253	0.304	0.279	0.285	0.45						0.6	0.746	0.842	0.636	0.305
NCI-H1792						0.642	0.621	0.522	0.512	0.479	1.01	0.821	0.571	0.524	0.484	0.681	0.332	0.416	0.157	0.118
